Results from patent US11459335B2, “N/O-linked Degrons and Degronimers for protein degradation” (C4 Therapeutics, Inc., priority 2017, dated 2022).

Target: CRBN-DDB1 (Homo sapiens (Human), UniProt Q96SW2)
Assay: Fluorescence polarization (FP) assay for compound ligand binding to CRBN-DDB1
Conditions: FP displacement of (−)-Thalidomide-Alexa Fluor or Pomalidomide-fluorescein probe (5 nM), 400 nM CRBN-DDB1, 60 min room temperature
Method: Measuring compound ligand binding to CRBN-DDB1 was carried out using an established sensitive and quantitative in vitro fluorescence polarization (FP) based binding assay. […] Compounds were dispensed from serially diluted DMSO stock into black 384-well compatible fluorescence polarization plates using an Echo acoustic dispenser. Compound binding to CRBN-DDB1 was measured by displacement of either a (−)-Thalidomide-Alexa Fluor® or Pornalidomide-fluorescein conjugated probe dye. […] Matching control wells excluding CRBN-DDB1 were used to correct for background fluorescence. Plates were read on an Envision plate reader with appropriate FP filter sets. The corrected S (perpendicular) and P (parallel) values were used to calculate fluorescence polarization (FP) with the following equation: FP=1000*(S−G*P)/(S+G*P).

[1] = Additional Compounds of the Present Invention
[2] = Degrons, Compounds of the Present Invention

Sequence of CRBN-DDB1 (Q96SW2 whole entry): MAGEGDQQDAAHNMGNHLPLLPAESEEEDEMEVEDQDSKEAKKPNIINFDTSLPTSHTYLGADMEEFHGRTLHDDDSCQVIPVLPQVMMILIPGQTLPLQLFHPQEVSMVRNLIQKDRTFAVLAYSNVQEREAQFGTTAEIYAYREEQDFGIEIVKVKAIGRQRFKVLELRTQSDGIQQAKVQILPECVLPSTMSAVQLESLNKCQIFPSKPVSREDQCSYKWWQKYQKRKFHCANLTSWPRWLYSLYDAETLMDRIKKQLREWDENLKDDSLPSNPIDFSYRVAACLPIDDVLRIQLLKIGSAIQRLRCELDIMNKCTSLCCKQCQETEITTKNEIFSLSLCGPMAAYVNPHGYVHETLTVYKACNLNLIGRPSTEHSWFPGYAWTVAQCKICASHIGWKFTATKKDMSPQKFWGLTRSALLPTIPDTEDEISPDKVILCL
Sequence of CRBN-DDB1 (Q16531 whole entry partner): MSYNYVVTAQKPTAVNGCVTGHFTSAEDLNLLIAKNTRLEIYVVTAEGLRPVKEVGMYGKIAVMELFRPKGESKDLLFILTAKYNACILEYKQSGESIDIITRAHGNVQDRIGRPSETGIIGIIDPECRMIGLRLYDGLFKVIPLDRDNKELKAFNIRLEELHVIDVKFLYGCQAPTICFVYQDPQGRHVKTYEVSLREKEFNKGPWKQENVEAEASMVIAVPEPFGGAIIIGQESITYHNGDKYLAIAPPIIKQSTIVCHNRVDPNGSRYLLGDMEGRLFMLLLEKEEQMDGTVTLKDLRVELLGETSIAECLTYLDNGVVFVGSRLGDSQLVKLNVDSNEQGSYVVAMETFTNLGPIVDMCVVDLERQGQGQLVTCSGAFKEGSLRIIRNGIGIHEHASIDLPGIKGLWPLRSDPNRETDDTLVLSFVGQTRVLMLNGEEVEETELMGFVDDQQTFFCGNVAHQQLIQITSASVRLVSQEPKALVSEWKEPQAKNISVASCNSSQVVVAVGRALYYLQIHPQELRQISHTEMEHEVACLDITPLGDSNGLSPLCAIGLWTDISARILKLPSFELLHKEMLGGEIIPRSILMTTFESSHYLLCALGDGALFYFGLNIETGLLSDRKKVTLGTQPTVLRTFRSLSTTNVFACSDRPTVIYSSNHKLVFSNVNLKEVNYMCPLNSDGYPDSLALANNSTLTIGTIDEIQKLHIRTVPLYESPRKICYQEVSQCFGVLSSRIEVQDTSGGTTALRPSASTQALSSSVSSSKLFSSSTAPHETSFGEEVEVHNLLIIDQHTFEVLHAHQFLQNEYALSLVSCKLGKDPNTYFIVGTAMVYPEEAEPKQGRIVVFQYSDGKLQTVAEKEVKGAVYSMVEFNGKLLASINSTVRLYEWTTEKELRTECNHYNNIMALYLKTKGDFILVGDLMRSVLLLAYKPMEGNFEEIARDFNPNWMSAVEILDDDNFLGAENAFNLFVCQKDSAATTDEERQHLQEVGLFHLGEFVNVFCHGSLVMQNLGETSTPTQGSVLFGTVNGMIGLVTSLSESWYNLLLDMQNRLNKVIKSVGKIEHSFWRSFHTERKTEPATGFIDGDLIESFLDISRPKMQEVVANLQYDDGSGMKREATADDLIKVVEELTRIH

| Compound | Kd [1] [µM] | Kd [2] [µM] |
| --- | --- | --- |
| CN(c1ccc(F)cc1F)C1CCC(=O)NC1=O (stereo not drawn) [Compound 2] | – | 50 to 100 |
| O=C1CCC(Nc2ccc(F)cc2)C(=O)N1 (stereo not drawn) [Compound 8] | – | 10 to 50 |
| O=C1CCC(Nc2ccccc2N2CCOCC2)C(=O)N1 (stereo not drawn) [Compound 14] | – | 10 to 50 |
| CN(c1ccc(F)cc1)C1CCC(=O)NC1=O (stereo not drawn) [Compound 17] | – | 10 to 50 |
| O=C1CCC(Nc2ccccc2OC(F)(F)F)C(=O)N1 (stereo not drawn) [Compound 21] | – | 10 to 50 |
| COc1ccc(C(F)(F)F)cc1NC1CCC(=O)NC1=O (stereo not drawn) [Compound 24] | – | 10 to 50 |
| COc1ccc(C(C)(C)C)cc1NC1CCC(=O)NC1=O (stereo not drawn) [Compound 25] | – | 50 to 100 |
| O=C1CCC(Nc2c(F)cccc2F)C(=O)N1 (stereo not drawn) [Compound 63] | – | 10 to 50 |
| COc1ccc(N(C)C2CCC(=O)NC2=O)c(OC)c1 (stereo not drawn) [Compound 69] | – | 10 to 50 |
| O=C1CCC(Nc2ccccc2CN2CCCC2)C(=O)N1 (stereo not drawn) [Compound 71] | – | 10 to 50 |
| O=C1CCC(Nc2cccc(CN3CCCCC3)c2)C(=O)N1 (stereo not drawn) [Compound 72] | – | 10 to 50 |
| CC(C)(C)OC(=O)N1CCC(n2cc(NC3CCC(=O)NC3=O)cn2)CC1 (stereo not drawn) [Compound 73] | – | 50 to 100 |
| Cn1cnc2c(NC3CCC(=O)NC3=O)cccc21 (stereo not drawn) [Compound 74] | – | 10 to 50 |
| O=C1CCC(Nc2cnn(-c3ccccc3)c2)C(=O)N1 (stereo not drawn) [Compound 75] | – | 10 to 50 |
| CN1CCc2ccc(NC3CCC(=O)NC3=O)cc2C1=O (stereo not drawn) [Compound 76] | – | 10 to 50 |
| Cn1cnc2cc(NC3CCC(=O)NC3=O)ccc21 (stereo not drawn) [Compound 78] | – | 10 to 50 |
| O=C1CCC(Nc2cccnc2)C(=O)N1 (stereo not drawn) [Compound 80] | – | 10 to 50 |
| O=C1CCC(Nc2ccc3c(c2)CCNC3)C(=O)N1 (stereo not drawn) [Compound 83] | – | 10 to 50 |
| O=C1CCC(Nc2ccc(C3CCNCC3)cn2)C(=O)N1 (stereo not drawn) [Compound 84] | – | 10 to 50 |
| CN(c1cccc(N2CCNCC2)c1)C1CCC(=O)NC1=O (stereo not drawn) [Compound 87] | – | 10 to 50 |

| Compound | Kd [1] [µM] | Kd [2] [µM] |
| --- | --- | --- |
| O=C1CCC(Nc2ccc(N3CCNCC3)cc2)C(=O)N1 (stereo not drawn) [Compound 89] | – | 10 to 50 |
| NCc1ccc(NC2CCC(=O)NC2=O)cc1 (stereo not drawn) [Compound 90] | – | 10 to 50 |
| NCc1cccc(NC2CCC(=O)NC2=O)c1 (stereo not drawn) [Compound 91] | – | 10 to 50 |
| CN1Cc2ccc(NC3CCC(=O)NC3=O)cc2C1=O (stereo not drawn) [Compound 93] | – | 50 to 100 |
| O=C1CCC(Nc2cnn(C3CCNCC3)c2)C(=O)N1 (stereo not drawn) [Compound 94] | – | 10 to 50 |
| CN(C1CN(C(=O)OC(C)(C)C)C1)C1CCC(=O)NC1=O (stereo not drawn) [Compound 98] | – | 50 to 100 |
| CN(C1CN(c2ccccc2)C1)C1CCC(=O)NC1=O (stereo not drawn) [Compound 103] | – | 10 to 50 |
| CN1CC(N(C)C2CCC(=O)NC2=O)CC1=O (stereo not drawn) [Compound 104] | – | 50 to 100 |
| CN(C1CC(=O)N(c2ccccc2)C1)C1CCC(=O)NC1=O (stereo not drawn) [Compound 105] | – | 50 to 100 |
| CN(CC(=O)Nc1ccccc1)C1CCC(=O)NC1=O (stereo not drawn) [Compound 108] | – | 10 to 50 |
| CN(CC(N)=O)C1CCC(=O)NC1=O (stereo not drawn) [Compound 110] | – | 10 to 50 |
| COc1cc(OC)nc(NC2CCC(=O)NC2=O)n1 (stereo not drawn) [Compound 113] | – | 50 to 100 |
| O=C1CCC(Nc2ccn(-c3ccccc3)n2)C(=O)N1 (stereo not drawn) [Compound 114] | – | 10 to 50 |
| O=C1CCC(Nc2cccnc2)C(=O)N1 (stereo not drawn) [Compound 115] | – | 10 to 50 |
| Cn1nc(NC2CCC(=O)NC2=O)c2ccccc21 (stereo not drawn) [Compound 116] | – | 10 to 50 |
| CC(C)(C)OC(=O)N1Cc2cnc(NC3CCC(=O)NC3=O)nc2C1 (stereo not drawn) [Compound 117] | – | 50 to 100 |
| O=C1CCC(Nc2cc(C(=O)N3CCCC3)ccn2)C(=O)N1 (stereo not drawn) [Compound 119] | – | 50 to 100 |
| O=C1CCC(Nc2ccc3ccccc3n2)C(=O)N1 (stereo not drawn) [Compound 120] | – | 10 to 50 |
| CC(C)(C)OC(=O)N1CCN(c2nccc(NC3CCC(=O)NC3=O)n2)CC1 (stereo not drawn) [Compound 121] | – | 50 to 100 |

Results, then the molecule that gave them:

| Kd [1] [µM] | Kd [2] [µM] | Compound |
| --- | --- | --- |
| 50 to 100 | – | O=C1CC[C@@H](O[C@H]2CCN(c3ccccc3)C2=O)C(=O)N1 (single isomer, unassigned) [Compound 161, 3-(2-Oxo-1-phenyl-pyrrolidin-3-yloxy)-piperidine-2,6-dione] |
| 10 to 50 | – | O=C1CC[C@H](O[C@H]2CCN(c3ccccc3)C2=O)C(=O)N1 (single isomer, unassigned) [Compound 162, 3-(2-Oxo-1-phenyl-pyrrolidin-3-yloxy)-piperidine-2,6-dione] |
| – | 10 to 50 | CC(C)(C)OC(=O)N1CCC(c2ccc(NC3CCC(=O)NC3=O)nc2)CC1 (stereo not drawn) [Compound 123] |
| – | 10 to 50 | Cc1cnc(NC2CCC(=O)NC2=O)cn1 (stereo not drawn) [Compound 124] |
| – | 10 to 50 | O=C1CCC(Nc2ccccc2)C(=O)N1 (stereo not drawn) [Compound 125] |
| 10 to 50 | – | O=C1CCC(Oc2ccccc2)C(=O)N1 (stereo not drawn) [Compound 129] |
| 10 to 50 | – | CN1CCN(c2ccc(OC3CCC(=O)NC3=O)cc2)CC1 (stereo not drawn) [Compound 130] |
| 10 to 50 | – | CC(C)(C)OC(=O)N1CCN(c2ccc(COC3CCC(=O)NC3=O)cc2)CC1 (stereo not drawn) [Compound 131, 4-[4-(2,6-Dioxo-piperidin-3-yloxymethyl)-phenyl]-piperazine-1-carboxylic Acid tert-butyl Ester] |
| 10 to 50 | – | Cn1cnc2cc(OC3CCC(=O)NC3=O)ccc21 (stereo not drawn) [Compound 142] |
| 10 to 50 | – | Cc1ccn(-c2ccc(OC3CCC(=O)NC3=O)cc2)n1 (stereo not drawn) [Compound 143] |
| 10 to 50 | – | CS(=O)(=O)c1cccc(OC2CCC(=O)NC2=O)c1 (stereo not drawn) [Compound 144] |
| 50 to 100 | – | CC(=O)c1cc(C)ccc1OC1CCC(=O)NC1=O (stereo not drawn) [Compound 146] |
| 50 to 100 | – | CC(=O)c1ccccc1OC1CCC(=O)NC1=O (stereo not drawn) [Compound 153] |
| 50 to 100 | – | COC(=O)c1ccccc1OC1CCC(=O)NC1=O (stereo not drawn) [Compound 155] |
| 10 to 50 | – | CC(C)(C)OC(=O)N1CCN(c2ccc(NC3CCC(=O)NC3=O)cn2)CC1 (stereo not drawn) [Compound 156, 4-[5-(2,6-Dioxo-piperidin-3-ylamino)-pyridin-2-yl]-piperazine-1-carboxylic Acid tert-butyl Ester] |
| 10 to 50 | – | Cn1nc(NC2CCC(=O)NC2=O)cc1-c1ccccc1 (stereo not drawn) [Compound 157, 3-(1-Methyl-5-phenyl-1H-pyrazol-3-ylamino)-piperidine-2,6-dione] |
| 10 to 50 | – | O=C1CCC(Nc2ccc(N3CCNCC3)nc2)C(=O)N1 (stereo not drawn) [Compound 158, 3-(6-Piperazin-1-yl-pyridin-3-ylamino)-piperidine-2,6-dione] |
| 10 to 50 | – | O=C1CCC(Nc2ccc3cccnc3c2)C(=O)N1 (stereo not drawn) [Compound 163] |
